Data from patent US20140050779A1, “[…]-2 INHIBITORS AND USES THEREOF” (SINGAPORE HEALTH SERVICES PTE. LTD., priority 2011, published 2014).
Entries after “also recorded” stand apart in the source; their conditions may differ.

Legend:
TG-2 [1] = experiment: Western blot of TG proteins in mouse scleral fibroblasts after muscarinic agents; type: cell-based
Procedure: (§1) All cells used in examples described herein were between passages 2-4. Passaged cells were plated at a concentration of 2×10^5/mL into 6 well plates containing DMEM with 10% FBS. The cells were seen to attach to the bottom of the culture wells after 4 hours. Old media was removed from wells and 1 mL of drug was added with fresh full medium and incubated at 37° C. Fresh drugs were replaced daily consecutively for the next 5 days to avoid oxidation. The drugs/media was removed and wells were washed twice with 1×PBS. 200 μl of RIPA lysis buffer was added per well and incubated for 5 minutes and cells were scrapped into an eppendorf tube. The cells were stored at −20° C. until sonication. The cells were sonicated on ice thrice at 20% output power for 5 seconds each time and rested 1 minute in between each turn. Cell debris was spun down at 12000 rpm for 20 minutes. The supernatant was poured into a new eppendorf tube and cell concentrations were determined using the Dc Protein assay Kit (Bio-Rad, MA). Passaged cells were plated at a concentration of 1×10^5 into 6 well plates containing DMEM with 10% FBS. The cells were seen to attach to the bottom of the culture wells after 4 hours. Freshly prepared muscarinic agents' at base line, 0.1, 1, 10 and 100 μM concentrations were added for 5 days (Table 2). The culture medium was removed and fresh medium containing the same muscarinic drug added every day to avoid drug changes such as atropine oxidation. Cell lysate was collected for relative quantitative (q) PCR and protein analysis at day 5.
The cells were lysed by sonification in 1×RIPA lysis buffer (santa cruz biotechnology, Sc-24948) with 10 μl PMSF solution, 10 μl sodium orthovanadate solution and 20 μl protease inhibitor cocktail solution. After centrifugation at 20,000×g at 4° C. for 20 minutes, and the supernatant collected. The protein content in the supernatants was measured using the DC Protein Assay kit (Bio-Rad, MA) following the manufacturer's instructions. Samples were stored at −80° C. until assayed.
The mouse and human scleral fibroblasts were treated with atropine or carbachol at 0.01, 0.1, 1, 5 and 10 μM concentrations for 5 days. Following 5 days of treatment, the total cellular protein was extracted from these cells and TG proteins detected via Western blot analysis.
Human and, mouse scleral fibroblast proteins in the supernatant were separated by SDS-PAGE, transferred to nitrocellulose membranes, blocked in 5% BSA in TBST (10 mM Tris-HCl [pH 8.0], 150 mM NaCl, and […] Tween-20) for 2 hours at room temperature, and incubated with the same anti-TG-2 antibody described herein at a dilution of 1:1000 and anti β-tubulin antibodies used as a positive control, for 1 hour at room temperature. The membranes were washed 3 times in TBST and incubated with HRP-conjugated secondary antibody (Chemicon International) at a dilution of 1:2500 for 1 hour at room temperature. Immunoreactive bands were visualized using the enhanced chemiluminescence method (GE Healthcare, Buckinghamshire, UK). The membrane was wrapped in plastic and placed against an X-ray film to expose for an appropriate length of time (30 seconds-5 minutes).

TG-2 [2] = experiment: TG-2 colorimetric microassay (transamidase activity) in lysate of treated human scleral fibroblasts; type: cell-based; settings: for transamidase activity of endogenous cellular TG-2: human scleral fibroblasts, 0.1, 1, 10 and 100 μM for 5 days, concentration-dependent
Procedure: as §1, with “The cells were seen to attach to the bottom of the culture wells after 4 hours.” left out
This assay was designed to assess the cross-linking activity of TG-2 between two proteins. TG activity was measured with TG-2 colorimetric Microassay kit (TG-Covtest, Covalab, Cambridge, UK). 150-200 μg of total protein was used per well for the TG-2 assay. Transglutaminase standards (Sigma) were used as a positive control. EDTA was used to inhibit the enzyme activity as a negative control.
The approximate volume of reagents to use, the wavelengths to use to read absorbance, the incubation times were determined from a previous study that have carried out experiments with similar principles as described in Perez Alea M, Kitamura M, Martin G, Thomas V, Hitomi K, El Alaoui S., “Development of an isoenzyme-specific colorimetric assay for tissue transglutaminase 2 cross-linking activity”, Anal Biochem. 2009 Jun. 15; 389(2):150-6, Epub 2009 March 24. All reagents used and protein coated plates were part of the kit. Biotin cadaverine was reconstituted with 6 ml of deionized water and 90 μl was added into each well of the 96 well plate that comes coated with CBZ-GLN-GLY. The rest of the steps were followed as in the manufacturer's instructions and finally absorbance was read at 450 nm using a microplate reader (TECAN, Austria). All incubations were performed with gentle shaking on a laboratory orbital shaker.
The TG-2 colorimetric assay serves as a high throughput and quantitative assay to assess transamidase activity. […] In vivo studies with these drugs were also conducted to determine the effect on myopia development (see FIGS. 14 and 15).

SMILES	TG-2 protein level (TG-2 [1]; specific muscarinic antagonists)	transamidase activity of endogenous cellular TG-2 (TG-2 [2])	TG-2 activity, strongest reduction among the antagonists (TG-2 [2]; human scleral fibroblasts, all concentrations)	TG-2 activity as compared to atropine (TG-2 [2]; human scleral fibroblasts, himbacine 0.1, 1, 10 & 100 μM, darifenacin 0.1, 1 & 10 μM)	TG-2 protein level (TG-2 [1]; 0.01-10 μM for 5 days, Western blot)
C[C@@H]1OC(=O)[C@H]2C[C@H]3CCCC[C@@H]3[C@@H](/C=C/[C@H]3CCC[C@H](C)N3C)[C@@H]12 [himbacine]	significantly reduced	reduced	most significantly reduced	more significantly reduced	
CN1[C@@H]2CC[C@H]1C[C@@H](OC(=O)C(CO)c1ccccc1)C2 (stereo partly drawn) [atropine]		reduced			reduced; also recorded: reduction
